Our source for the IC50 values is patent US20260347373A1, “HETEROCYCLIC COMPOUNDS, COMPOSITIONS THEREOF, AND METHODS OF TREATMENT THEREWITH” (BeOne Medicines I GmbH, priority 2023, published 2026).

The target in one test is WT KRAS (Homo sapiens, UniProt P01116). The test is described as follows: KRAS WT Probe Displacement Assay (TR-FRET, GDP-loaded). The test is classed as binding. The text has this:
(§1) The synthetic routes of probe 1 and 2, which have been disclosed in PCT/CN2022/070676, are hereby incorporated herein.

A further test has as its target KRAS G12D (Homo sapiens, UniProt P01116, G12D). The test is described as follows: KRAS G12D Probe Displacement Assay (TR-FRET, GDP-loaded). In kind it is binding.
Text: as §1

The mark [1] stands for this setting: KRAS WT, read-out: KRAS^WT Probe Displacement Assay IC50.
Setting [2] is: KRAS G12D, read-out: KRAS^G12D Probe Displacement Assay IC50.
Setting [3] is: KRAS^WT Probe Displacement Assay IC50, KRAS WT.
[4] abbreviates: KRAS^G12D Probe Displacement Assay IC50, KRAS G12D.

pIC50: −log10 of the molar value. Structures can show the parent of a compound that is named as a salt. Where two headings read alike, the source gives them in different places. Bounds are passed on as bounds.

KRAS G12D, sequence (P01116 1-188 isoform P01116-2 G12D): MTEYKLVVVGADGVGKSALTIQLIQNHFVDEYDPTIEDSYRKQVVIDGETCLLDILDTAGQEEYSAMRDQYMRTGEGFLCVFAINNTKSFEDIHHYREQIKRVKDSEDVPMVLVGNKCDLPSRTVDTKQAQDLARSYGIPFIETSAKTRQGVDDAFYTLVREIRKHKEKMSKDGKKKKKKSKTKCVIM
WT KRAS, sequence (P01116 1-188 isoform P01116-2): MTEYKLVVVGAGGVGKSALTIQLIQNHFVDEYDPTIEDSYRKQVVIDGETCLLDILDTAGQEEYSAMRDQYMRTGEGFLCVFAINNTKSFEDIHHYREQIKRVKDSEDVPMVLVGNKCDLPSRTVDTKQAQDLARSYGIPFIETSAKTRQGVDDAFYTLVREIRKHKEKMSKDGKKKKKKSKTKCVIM

Turning to `Cc1cc(N)cc(-c2nc3c4c(nc(OCC5(CN6CC7CC6CC7(F)F)CC5)nc4c2F)N2C[C@H]4CC[C@H](N4)[C@H]2CCO3)c1C(F)(F)F` [Example 174, 3-((6aR,7S,10R)-13-((1-((5,5-difluoro-2-azabicyclo[2.2.1]heptan-2-yl)methyl)cyclopropyl)methoxy)-1-fluoro-5,6,6a,7,8,9,10,11-octahydro-4-oxa-3,11a,12,14,15-pentaaza-7,10-methanocyclohepta[4,5]cycloocta[1,2,3-de]naphthalen-2-yl)-5-methyl-4-(trifluoromethyl)aniline], the figures for the negative-log IC50 (pIC50) at WT KRAS (setting [1]) and at KRAS G12D (setting [2]) were 6.00 to 8.52 and above 9.52, respectively.

Consider `Cc1cc(N)cc(-c2nc3c4c(nc(OCC5(CN6CCC6)CC5(F)F)nc4c2F)N2C[C@H]4CC[C@H](N4)[C@H]2CCO3)c1C(F)(F)F` (single isomer, unassigned) [Example 57], for which the pIC50 on WT KRAS (setting [1]) was 6.00 to 8.52; at KRAS G12D (setting [2]), 8.52 to 9.52.

Consider `[2H]C([2H])([2H])N1CCC(C(F)F)C(C)(C([2H])([2H])Oc2nc3c4c(nc(-c5cc(N)cc(Cl)c5C(F)(F)F)c(F)c4n2)OCC[C@@H]2[C@@H]4CC[C@H](CN32)N4)C1` (single isomer, unassigned) [Example 246], for which the pIC50 on WT KRAS (setting [1]) was 6.00 to 8.52; on KRAS G12D (setting [2]), 8.52 to 9.52.

In the case of `Cc1cc(N)cc(-c2nc3c4c(nc(OCC5(CN6CCC(F)(F)C6)CC5)nc4c2F)N2C[C@H]4CC[C@H](N4)[C@H]2CCO3)c1C(F)(F)F` [Example 89, 3-((6aR,7S,10R)-13-((1-((3,3-difluoropyrrolidin-1-yl)methyl)cyclopropyl)methoxy)-1-fluoro-5,6,6a,7,8,9,10,11-octahydro-4-oxa-3,11a,12,14,15-pentaaza-7,10-methanocyclohepta [4,5]cycloocta [1,2,3-de]naphthalen-2-yl)-5-methyl-4-(trifluoromethyl) aniline], the pIC50 at WT KRAS (setting [3]) was 6.00 to 8.52; on KRAS G12D (setting [4]) it was above 9.52.

In the case of `Cc1cc(N)cc(-c2nc3c4c(nc(OC[C@]56C[C@H](F)CN5C[C@H](F)C6)nc4c2F)N2C[C@H]4CC[C@H](N4)[C@H]2CCO3)c1C(F)(F)F` [Example 35], the pIC50 was 6.00 to 8.52 on WT KRAS (setting [1]) and 8.52 to 9.52 at KRAS G12D (setting [2]).

Regarding `Cc1cc(N)cc(-c2nc3c4c(nc(O[C@H]5C[C@@H]6C[C@H]5CN(C)C6)nc4c2F)N2C[C@H]4CC[C@H](N4)[C@H]2CCO3)c1C(F)(F)F` [Example 198, 3-((6aR,7S,10R)-1-fluoro-13-(((1S,5S,6S)-3-methyl-3-azabicyclo[3.2.1]octan-6-yl)oxy)-5,6,6a,7,8,9,10,11-octahydro-4-oxa-3,11a,12,14,15-pentaaza-7,10-methanocyclohepta[4,5]cycloocta[1,2,3-de]naphthalen-2-yl)-5-methyl-4-(trifluoromethyl)aniline], the pIC50 was 6.00 to 8.52 at WT KRAS (setting [1]) and above 9.52 at KRAS G12D (setting [2]).

With `Cc1cc(N)cc(-c2nc3c4c(nc(OCC5(CN6CCC(F)CC6)CC5)nc4c2F)N2C[C@H]4CC[C@H](N4)[C@H]2CCO3)c1C(F)(F)F` [Example 66, 3-((6aR,7S,10R)-1-fluoro-13-((1-((4-fluoropiperidin-1-yl)methyl)cyclopropyl)methoxy)-5,6,6a,7,8,9,10,11-octahydro-4-oxa-3,11a,12,14,15-pentaaza-7,10-methanocyclohepta[4,5]cycloocta [1,2,3-de]naphthalen-2-yl)-5-methyl-4-(trifluoromethyl)aniline], the results for the pIC50 at WT KRAS (setting [1]) and on KRAS G12D (setting [2]) were 6.00 to 8.52 and above 9.52, respectively.

In the case of `[2H]C([2H])([2H])N1CCC(C(F)F)C(C)(C([2H])([2H])Oc2nc3c4c(nc(-c5cc(N)cc(C)c5C(F)(F)F)c(F)c4n2)OCC[C@@H]2[C@@H]4CC[C@H](CN32)N4)C1` (single isomer, unassigned) [Example 240], the pIC50 at WT KRAS (setting [1]) was 6.00 to 8.52; on KRAS G12D (setting [2]) it was 8.52 to 9.52.

For the compound `Cc1cc(N)cc(-c2nc3c4c(nc(OCC5(F)COCC5N(C)C)nc4c2F)N2C[C@H]4CC[C@H](N4)[C@H]2CCO3)c1C(F)(F)F` (stereo partly drawn) [Example 132, 4-((((6aR,7S,10R)-2-(5-amino-3-methyl-2-(trifluoromethyl)phenyl)-1-fluoro-5,6,6a,7,8,9,10,11-octahydro-4-oxa-3,11a,12,14,15-pentaaza-7,10-methanocyclohepta[4,5]cycloocta [1,2,3-de]naphthalen-13-yl)oxy)methyl)-4-fluoro-N,N-dimethyltetrahydrofuran-3-amine], the results for the pIC50 on WT KRAS (setting [1]) and on KRAS G12D (setting [2]) were 6.00 to 8.52 and 8.52 to 9.52, respectively.

For `Cc1cc(N)cc(-c2nc3c4c(nc(OCC5(CN6CCC(C(F)(F)F)C6)CC5)nc4c2F)N2C[C@H]4CC[C@H](N4)[C@H]2CCO3)c1C(F)(F)F` (stereo partly drawn) [Example 91, 3-((6aR,7S,10R)-1-fluoro-13-((1-((3-(trifluoromethyl)pyrrolidin-1-yl)methyl)cyclopropyl)methoxy)-5,6,6a,7,8,9,10,11-octahydro-4-oxa-3,11a,12,14,15-pentaaza-7,10-methanocyclohepta [4,5]cycloocta [1,2,3-de]naphthalen-2-yl)-5-methyl-4-(trifluoromethyl)aniline], the pIC50 at WT KRAS (setting [1]) is 6.00 to 8.52; on KRAS G12D (setting [2]), above 9.52.

With `Cc1cc(N)cc(-c2nc3c4c(nc(OCC5(C)CC(F)CN(C)C5)nc4c2F)N2C[C@H]4CC[C@H](N4)[C@H]2CCO3)c1C(F)(F)F` (stereo partly drawn) [Example 5, 3-((6aR,7S,10R)-1-fluoro-13-((5-fluoro-1,3-dimethylpiperidin-3-yl)methoxy)-5,6,6a,7,8,9,10,11-octahydro-4-oxa-3,11a,12,14,15-pentaaza-7,10-methanocyclohepta[4,5]cycloocta [1,2,3-de]naphthalen-2-yl)-5-methyl-4-(trifluoromethyl)aniline], the results for the pIC50 at WT KRAS (setting [1]) and on KRAS G12D (setting [2]) were 6.00 to 8.52 and above 9.52, respectively.

In the case of `COC[C@@H]1[C@H]2C[C@H]2CN1CC1(COc2nc3c4c(nc(-c5cc(N)cc(C)c5C(F)(F)F)c(F)c4n2)OCC[C@@H]2[C@@H]4CC[C@H](CN32)N4)CC1` [Example 182, 3-((6aR,7S,10R)-1-fluoro-13-((1-(((1S,2S,5R)-2-(methoxymethyl)-3-azabicyclo[3.1.0]hexan-3-yl)methyl)cyclopropyl)methoxy)-5,6,6a,7,8,9,10,11-octahydro-4-oxa-3,11a,12,14,15-pentaaza-7,10-methanocyclohepta[4,5]cycloocta[1,2,3-de]naphthalen-2-yl)-5-methyl-4-(trifluoromethyl)aniline], the results for the pIC50 on WT KRAS (setting [1]) and at KRAS G12D (setting [2]) were 6.00 to 8.52 and above 9.52, respectively.

With `Cc1cc(N)cc(-c2nc3c4c(nc(OCC5(C)CN(C)CCN5C)nc4c2F)N2C[C@H]4CC[C@H](N4)[C@H]2CCO3)c1C(F)(F)F` (single isomer, unassigned) [Example 4], the results for the pIC50 at WT KRAS (setting [1]) and at KRAS G12D (setting [2]) were 6.00 to 8.52 and above 9.52, respectively.

Turning to `Nc1cc(Cl)c(C(F)(F)F)c(-c2nc3c4c(nc(OCC56C[C@@H](F)CN5C[C@H](F)C6)nc4c2F)N2C[C@H]4CC[C@H](N4)[C@H]2CCO3)c1` [Example 72, 3-chloro-5-((6aR,7S,10R)-13-(((2R,6R)-2,6-difluorotetrahydro-1H-pyrrolizin-7a(5H)-yl)methoxy)-1-fluoro-5,6,6a,7,8,9,10,11-octahydro-4-oxa-3,11a,12,14,15-pentaaza-7,10-methanocyclohepta[4,5]cycloocta [1,2,3-de]naphthalen-2-yl)-4-(trifluoromethyl)aniline], the pIC50 at WT KRAS (setting [1]) was 6.00 to 8.52; at KRAS G12D (setting [2]), above 9.52.

With `Cc1cc(N)cc(-c2nc3c4c(nc(OCC5(CN6CCC7(CCOCC7)C6)CC5)nc4c2F)N2C[C@H]4CC[C@H](N4)[C@H]2CCO3)c1C(F)(F)F` [Example 101, 3-((6aR,7S,10R)-13-((1-((8-oxa-2-azaspiro[4.5]decan-2-yl)methyl)cyclopropyl)methoxy)-1-fluoro-5,6,6a, 7,8,9,10,11-octahydro-4-oxa-3,11a,12,14,15-pentaaza[7,10]methanocyclohepta [4,5]cycloocta[1,2,3-de]naphthalen-2-yl)-5-methyl-4-(trifluoromethyl) aniline formate], the values for the pIC50 on WT KRAS (setting [3]) and at KRAS G12D (setting [4]) were 6.00 to 8.52 and above 9.52, respectively.

As to `Cc1cc(N)cc(-c2nc3c4c(nc(OCC5(CN6C[C@H]7C[C@H]7[C@H]6CO)CC5)nc4c2F)N2C[C@H]4CC[C@H](N4)[C@H]2CCO3)c1C(F)(F)F` [Example 98, ((1R,2S,5S)-3-((1-((((6aR,7S,10R)-2-(5-amino-3-methyl-2-(trifluoromethyl)phenyl)-1-fluoro-5,6,6a,7,8,9,10,11-octahydro-4-oxa-3,11a,12,14,15-pentaaza-7,10-methanocyclohepta [4,5]cycloocta[1,2,3-de]naphthalen-13-yl)oxy)methyl)cyclopropyl)methyl)-3-azabicyclo [3.1.0]hexan-2-yl) methanol], the pIC50 on WT KRAS (setting [1]) was 6.00 to 8.52; at KRAS G12D (setting [2]), above 9.52.

As for `Cc1cc(N)cc(-c2nc3c4c(nc(O[C@H](C)[C@@H]5CCCN5C)nc4c2F)N2C[C@H]4CC[C@H](N4)[C@H]2CCO3)c1C(F)(F)F` [Example 38, 3-((6aR,7S,10R)-1-fluoro-13-((R)-1-((S)-1-methylpyrrolidin-2-yl)ethoxy)-5,6,6a,7,8,9,10,11-octahydro-4-oxa-3,11a,12,14,15-pentaaza-7,10-methanocyclohepta[4,5]cycloocta [1,2,3-de]naphthalen-2-yl)-5-methyl-4-(trifluoromethyl)aniline], the pIC50 on WT KRAS (setting [1]) is 6.00 to 8.52; on KRAS G12D (setting [2]), 8.52 to 9.52.

Take `COC[C@@H]1[C@@H]2C[C@@H]2CN1CC1(COc2nc3c4c(nc(-c5cc(N)cc(C)c5C(F)(F)F)c(F)c4n2)OCC[C@@H]2[C@@H]4CC[C@H](CN32)N4)CC1` [Example 180, 3-((6aR,7S,10R)-1-fluoro-13-((1-(((1R,2S,5S)-2-(methoxymethyl)-3-azabicyclo[3.1.0]hexan-3-yl)methyl)cyclopropyl)methoxy)-5,6,6a,7,8,9,10,11-octahydro-4-oxa-3,11a,12,14,15-pentaaza-7,10-methanocyclohepta[4,5]cycloocta[1,2,3-de]naphthalen-2-yl)-5-methyl-4-(trifluoromethyl)aniline]: the results for the pIC50 on WT KRAS (setting [1]) and on KRAS G12D (setting [2]) were 6.00 to 8.52 and 8.52 to 9.52, respectively.

Broadly, the pIC50 is the IC50 on a negative log10 scale, so that one unit is a factor of ten.
